Laboratory results published in US20210300909A1, “IMMUNOMODULATORS, COMPOSITIONS AND METHODS THEREOF” (BETTA PHARMACEUTICALS CO., LTD, priority 2018, published 2021).
Like-named read-outs stand apart in the source and are kept apart here.

Biological target: T1, PD-1/PD-L1 protein/protein interaction (Homo sapiens, UniProt Q9NZQ7)
T1 construct: Recombinant human PD-L1 protein (19-238) with a His-tag at the C-terminus; purchased AcroBiosystems PD1-H5229 (PD-L1); PD1-H5257 (PD-1)
Assay: PD-1/PD-L1 homogenous time-resolved fluorescence (HTRF) binding assay
Experimental: Resolved Fluorescence (HTRF) Binding Assay
The assays were conducted in a standard black 384-well polystyrene plate with a final volume of 20 μL. Inhibitors were first serially diluted in DMSO and then added to the plate wells before the addition of other reaction components. The final concentration of DMSO in the assay was 1%. The assays were carried out at 25° C. in the PBS buffer (pH 7.4) with 0.05% Tween-20 and 0.1% BSA. […] Plates were centrifuged and proteins were preincubated with inhibitors for 40 min. The incubation was followed by the addition of 10 μL of HTRF detection buffer supplemented with Europium cryptate-labeled anti-human IgG (PerkinElmer-AD0212) specific for Fc and anti-His antibody conjugated to SureLight®-Allophycocyanin (APC, PerkinElmer-AD0059H). After centrifugation, the plate was incubated at 25° C. for 60 min. […] Final concentrations in the assay were […], 10 nM PD-L1, nM europium anti-human IgG and 20 nM anti-His-Allophycocyanin. IC50 determination was performed by fitting the curve of percent control activity versus the log of the inhibitor concentration using the GraphPad Prism 5.0 software.

[1] = HTRF, recombinant human PD-1 (Fc tag) / PD-L1 (His-tag), 25° C., PBS pH 7.4, class symbols, read-out: IC50

T1 sequence (Q9NZQ7 19-238): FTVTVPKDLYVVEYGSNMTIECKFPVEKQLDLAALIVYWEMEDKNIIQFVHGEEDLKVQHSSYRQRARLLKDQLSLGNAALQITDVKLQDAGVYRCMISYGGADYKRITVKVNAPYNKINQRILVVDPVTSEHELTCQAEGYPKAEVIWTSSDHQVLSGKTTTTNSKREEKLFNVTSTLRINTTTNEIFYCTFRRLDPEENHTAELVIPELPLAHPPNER

COc1cc2oc(-c3cccc(-c4cccc(NC(=O)CCN5CCOCC5)c4)c3C)nc2cc1CN1CCOCC1C(=O)O (stereo not shown) [Compound 17, 4-((6-methoxy-2-(2-methyl-3′-(3-morpholinopropanamido)-[1,1′-biphenyl]-3-yl)benzo[d]oxazol-5-yl)methyl)morpholine-3-carboxylic acid]
IC50: < 25 nM

COc1cc2oc(-c3cccc(-c4ccccc4)c3C)nc2cc1CN1CCCCC1C(=O)O (stereo not shown) [Compound 23, 1-((6-methoxy-2-(2-methyl-[1,1′-biphenyl]-3-yl)benzo[d]oxazol-5-yl)methyl)piperidine-2-carboxylic acid]
IC50 (HTRF, recombinant human PD-1 (Fc tag) / PD-L1 (His-tag), 25° C., PBS pH 7.4, numeric values, read-out: IC50): 0.61 nM

COc1cc2oc(-c3cccc(-c4cccc(OCCCN5CCOCC5)c4)c3C)nc2cc1CN1CCCC1C(=O)O (stereo not shown) [Compound 20, ((6-methoxy-2-(2-methyl-3′-(3-morpholinopropoxy)-[1,1′-biphenyl]-3-yl)benzo[d]oxazol-5-yl)methyl)proline]
IC50: < 25 nM

COc1cc2c(cc1CN1CCCCC1C(=O)O)nc(-c1cccc(-c3cccc(OCCCN4CCOCC4)c3F)c1C)n2C (stereo not shown) [Compound 13, 1-((2-(2′-fluoro-2-methyl-3′-(3-morpholinopropoxy)-[1,1′-biphenyl]-3-yl)-6-methoxy-1-methyl-1H-benzo[d]imidazol-5-yl)methyl)piperidine-2-carboxylic acid]
IC50: < 25 nM

COc1cc2oc(-c3cccc(-c4cccc(/C=C/CCN5CCOCC5)c4C)c3C)nc2cc1CN1CCCCC1C(=O)O (stereo not shown) [Compound 7, (E)-1-((2-(2,2′-dimethyl-3′-(4-morpholinobut-1-en-1-yl)-[1,1′-biphenyl]-3-yl)-6-methoxybenzo[d]oxazol-5-yl)methyl)piperidine-2-carboxylic acid]
IC50: < 25 nM

COc1cc2oc(-c3cccc(-c4cccc(NC(=O)NCCNCCO)c4)c3C)nc2cc1CN1CCCCC1C(=O)O (stereo not shown) [Compound 5, 1-((2-(3′-(3-(2-((2-hydroxyethyl)amino)ethyl)ureido)-2-methyl-[1,1′-biphenyl]-3-yl)-6-methoxybenzo[d]oxazol-5-yl)methyl)piperidine-2-carboxylic acid]
IC50: 25 to 150 nM

COc1cc2oc(-c3cccc(-c4cccc(CC5CC5CN5CCOCC5)c4C)c3C)nc2cc1CN1CCCCC1C(=O)O (stereo not shown) [Compound 28, 1-((2-(2,2′-dimethyl-3′-((2-(morpholinomethyl)cyclopropyl)methyl)-[1,1′-biphenyl]-3-yl)-6-methoxybenzo[d]oxazol-5-yl)methyl)piperidine-2-carboxylic acid]
IC50: 25 to 150 nM

Cc1c(-c2ccccc2)cccc1-c1nc2cc(CN3CCCCC3C(=O)O)c(OC(C)C)cc2o1 (stereo not shown) [Compound 24, 1-((6-isopropoxy-2-(2-methyl-[1,1′-biphenyl]-3-yl)benzo[d]oxazol-5-yl)methyl)piperidine-2-carboxylic acid]
IC50: < 25 nM

COc1cc2oc(-c3cccc(-c4cccc(CC5OC5CN5CCOCC5)c4C)c3C)nc2cc1CN1CCCCC1C(=O)O (stereo not shown) [Compound 27, 1-((2-(2,2′-dimethyl-3′-((3-(morpholinomethyl)oxiran-2-yl)methyl)-[1,1′-biphenyl]-3-yl)-6-methoxybenzo[d]oxazol-5-yl)methyl)piperidine-2-carboxylic acid]
IC50: 25 to 150 nM

CCCNC(=O)NCCN(C)CCCOc1cccc(-c2cccc(-c3nc4cc(CN5CCCCC5C(=O)O)c(OC)cc4o3)c2C)c1C (stereo not shown) [Compound 32, 1-((2-(2,2′-dimethyl-3′-(3-(methyl(2-(3-propylureido)ethyl)amino)propoxy)-[1,1′-biphenyl]-3-yl)-6-methoxybenzo[d]oxazol-5-yl)methyl)piperidine-2-carboxylic acid]
IC50: < 25 nM

COc1cc2oc(-c3cccc(-c4cccc(CCCCN5CCOCC5)c4)c3C)nc2cc1CN1CCCCC1C(=O)O (stereo not shown) [Compound 10, 1-((6-methoxy-2-(2-methyl-3′-(4-morpholinobutyl)-[1,1′-biphenyl]-3-yl)benzo[d]oxazol-5-yl)methyl)piperidine-2-carboxylic acid]
IC50: 25 to 150 nM

COCCN(C)CCCOc1cccc(-c2cccc(-c3nc4cc(CN5CCCCC5C(=O)O)c(OC)cc4o3)c2C)c1C (stereo not shown) [Compound 31, 1-((6-methoxy-2-(3′-(3-((2-methoxyethyl)(methyl)amino)propoxy)-2,2′-dimethyl-[1,1′-biphenyl]-3-yl)benzo[d]oxazol-5-yl)methyl)piperidine-2-carboxylic acid]
IC50: < 25 nM

COc1cc2oc(-c3cccc(-c4cccc(OCCCN5CCOCC5)c4F)c3C)nc2cc1CN1CCCCC1C(=O)O (stereo not shown) [Compound 9, 1-((2-(2′-fluoro-2-methyl-3′-(3-morpholinopropoxy)-[1,1′-biphenyl]-3-yl)-6-methoxybenzo[d]oxazol-5-yl)methyl)piperidine-2-carboxylic acid]
IC50: < 25 nM

COc1cc2oc(-c3cccc(-c4cccc(OCCCN5CCOCC5)c4)c3C)nc2cc1CN1CCC(F)(F)CC1C(=O)O (stereo not shown) [Compound 16, 4,4-difluoro-1-((6-methoxy-2-(2-methyl-3′-(3-morpholinopropoxy)-[1,1′-biphenyl]-3-yl)benzo[d]oxazol-5-yl)methyl)piperidine-2-carboxylic acid]
IC50: 25 to 150 nM

CCOc1cc2oc(-c3cccc(-c4cccc5c4CCN5C(=O)CCN4CCOCC4)c3C)nc2cc1CN1CCCCC1C(=O)O (stereo not shown) [Compound 39, 1-((6-ethoxy-2-(2-methyl-3-(1-(3-morpholinopropanoyl)indolin-4-yl)phenyl)benzo[d]oxazol-5-yl)methyl)piperidine-2-carboxylic acid]
IC50 [1]: < 25 nM

COc1cc2oc(-c3cccc(-c4cccc(OCCCN5CCOCC5)c4C)c3C)nc2cc1CN1CCCCC1C(=O)O (stereo not shown) [Compound 3, 1-((2-(2,2′-dimethyl-3′-(3-morpholinopropoxy)-[1,1′-biphenyl]-3-yl)-6-methoxybenzo[d]oxazol-5-yl)methyl)piperidine-2-carboxylic acid]
IC50: 1 nM

COc1cc2nc(-c3cccc(-c4cccc(OCCCN5CCOCC5)c4F)c3C)n(C)c2cc1N1CCCCC1C(=O)O (stereo not shown) [Compound 12, 1-(2-(2′-fluoro-2-methyl-3′-(3-morpholinopropoxy)-[1,1′-biphenyl]-3-yl)-5-methoxy-1-methyl-1H-benzo[d]imidazol-6-yl)piperidine-2-carboxylic acid]
IC50: < 25 nM

COc1cc2oc(-c3cccc(-c4cccc(OCCCN(C)CCCCO)c4C)c3C)nc2cc1CN1CCCCC1C(=O)O (stereo not shown) [Compound 29, 1-((2-(3′-(3-((4-hydroxybutyl)(methyl)amino)propoxy)-2,2′-dimethyl-[1,1′-biphenyl]-3-yl)-6-methoxybenzo[d]oxazol-5-yl)methyl)piperidine-2-carboxylic acid]
IC50: < 25 nM

COc1cc2oc(-c3cccc(-c4cccc5c4CCN5C(=O)CCN4CCOCC4)c3C)nc2cc1CN1CCOCC1C(=O)O (stereo not shown) [Compound 38, 4-((6-methoxy-2-(2-methyl-3-(1-(3-morpholinopropanoyl)indolin-4-yl)phenyl)benzo[d]oxazol-5-yl)methyl)morpholine-3-carboxylic acid]
IC50: < 25 nM

COc1cc2c(cc1CN1CCOCC1C(=O)O)nc(-c1cccc(-c3cccc(OCCCN4CCOCC4)c3)c1C)n2C (stereo not shown) [Compound 14, 4-((6-methoxy-1-methyl-2-(2-methyl-3′-(3-morpholinopropoxy)-[1,1′-biphenyl]-3-yl)-1H-benzo[d]imidazol-5-yl)methyl)morpholine-3-carboxylic acid]
IC50: < 25 nM

COc1cc2c(cc1CN1CCC(F)(F)CC1C(=O)O)nc(-c1cccc(-c3cccc(OCCCN4CCOCC4)c3)c1C)n2C (stereo not shown) [Compound 15, 4,4-difluoro-1-((6-methoxy-1-methyl-2-(2-methyl-3′-(3-morpholinopropoxy)-[1,1′-biphenyl]-3-yl)-1H-benzo[d]imidazol-5-yl)methyl)piperidine-2-carboxylic acid]
IC50: 25 to 150 nM

COc1cc2oc(-c3cccc(-c4cccc(OCCCN5CCOCC5)c4)c3C)nc2cc1CNC(C)(CO)C(=O)O (stereo not shown) [Compound 21, 3-hydroxy-2-(((6-methoxy-2-(2-methyl-3′-(3-morpholinopropoxy)-[1,1′-biphenyl]-3-yl)benzo[d]oxazol-5-yl)methyl)amino)-2-methylpropanoic acid]
IC50: < 25 nM

COc1cc2oc(-c3cccc(-c4cccc(OCCCN5CCOCC5)c4)c3C)nc2cc1CNCCO [Compound 1, 2-(((6-methoxy-2-(2-methyl-3′-(3-morpholinopropoxy)-[1,1′-biphenyl]-3-yl)benzo[d]oxazol-5-yl)methyl)amino)ethan-1-ol]
IC50 [1]: < 25 nM

Cc1c(-c2cccc(OCCCN3CCOCC3)c2)cccc1-c1nc2cc(CN3CCCCC3C(=O)O)c(OCc3ccccn3)cc2o1 (stereo not shown) [Compound 22, 1-((2-(2-methyl-3′-(3-morpholinopropoxy)-[1,1′-biphenyl]-3-yl)-6-(pyridin-2-ylmethoxy)benzo[d]oxazol-5-yl)methyl)piperidine-2-carboxylic acid]
IC50: 25 to 150 nM

COc1cc2nc(-c3cccc(-c4cccc(OCCCN5CCOCC5)c4)c3C)sc2cc1CN1CCCCC1C(=O)O (stereo not shown) [Compound 35, 1-((5-methoxy-2-(2-methyl-3′-(3-morpholinopropoxy)-[1,1′-biphenyl]-3-yl)benzo[d]thiazol-6-yl)methyl)piperidine-2-carboxylic acid]
IC50: < 25 nM
